Like-named read-outs stand apart in the source and are kept apart here. Residues, ends and D or L forms follow the SMILES beside them.

We go through 14 molecules from PMC6213796, “Purification and Identification of Angiotensin I-Converting Enzyme Inhibitory Peptides and the Antihypertensive Effect of Chlorella sorokiniana Protein Hydrolysates” (Nutrients, 2018).

For one experiment, the target named is T1, Rabbit lung ACE (Oryctolagus cuniculus, UniProt P12822).
T1 construct: ACE of rabbit lung, and other chemicals of analytical grade were obtained from Sigma Chemical Co; purchased Sigma Chemical Co. (St. Louis, MO, USA); host or cells: rabbit lung tissue
T1 sequence (P12822 34-1310): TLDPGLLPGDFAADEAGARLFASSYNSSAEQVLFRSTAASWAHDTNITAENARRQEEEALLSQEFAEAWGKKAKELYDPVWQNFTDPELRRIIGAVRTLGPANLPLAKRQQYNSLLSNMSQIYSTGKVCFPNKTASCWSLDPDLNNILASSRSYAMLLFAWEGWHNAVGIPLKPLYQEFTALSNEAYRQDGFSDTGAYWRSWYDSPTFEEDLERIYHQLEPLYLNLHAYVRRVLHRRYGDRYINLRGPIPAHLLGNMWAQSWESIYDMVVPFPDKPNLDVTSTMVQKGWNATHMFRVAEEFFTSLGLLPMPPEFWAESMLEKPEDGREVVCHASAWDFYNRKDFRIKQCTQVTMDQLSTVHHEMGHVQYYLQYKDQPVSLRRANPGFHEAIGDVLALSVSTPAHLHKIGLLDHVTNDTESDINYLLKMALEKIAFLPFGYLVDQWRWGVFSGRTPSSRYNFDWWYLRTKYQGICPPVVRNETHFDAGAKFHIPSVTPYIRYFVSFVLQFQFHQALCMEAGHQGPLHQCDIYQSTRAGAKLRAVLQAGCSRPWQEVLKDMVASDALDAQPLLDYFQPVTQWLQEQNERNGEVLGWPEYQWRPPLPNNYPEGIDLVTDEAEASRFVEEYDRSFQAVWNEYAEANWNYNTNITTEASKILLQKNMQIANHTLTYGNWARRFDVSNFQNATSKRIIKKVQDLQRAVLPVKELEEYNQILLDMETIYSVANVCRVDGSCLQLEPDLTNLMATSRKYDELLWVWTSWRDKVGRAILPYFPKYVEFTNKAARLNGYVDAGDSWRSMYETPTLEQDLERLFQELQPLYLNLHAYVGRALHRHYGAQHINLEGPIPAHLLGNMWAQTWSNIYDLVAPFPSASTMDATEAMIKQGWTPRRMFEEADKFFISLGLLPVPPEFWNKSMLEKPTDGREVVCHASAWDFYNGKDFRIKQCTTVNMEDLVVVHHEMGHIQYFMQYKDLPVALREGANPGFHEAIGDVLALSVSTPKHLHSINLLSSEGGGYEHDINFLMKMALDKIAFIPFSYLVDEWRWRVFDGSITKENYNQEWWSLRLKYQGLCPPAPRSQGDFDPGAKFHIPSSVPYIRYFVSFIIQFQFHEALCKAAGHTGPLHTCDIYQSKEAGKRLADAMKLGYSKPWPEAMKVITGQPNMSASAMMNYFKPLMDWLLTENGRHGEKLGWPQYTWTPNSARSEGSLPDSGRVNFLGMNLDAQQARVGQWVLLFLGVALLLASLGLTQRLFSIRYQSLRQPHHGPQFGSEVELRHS
The experiment can be described thus: In vitro assay for ACE-inhibitory activity (HHL substrate, RP-HPLC of hippuric acid). It is filed as biochemical. The note with it: for ACE Inhibitory (%): RP-HPLC peaks of fraction F of PN-1G, at peptide content 0.01-0.03 mg/mL. How it is done:
In brief, 15 mM HHL was dissolved in 100 mM Na-borate buffer (pH 8.3) supplemented with 300 mM NaCl. […] A mixture containing 75 μL of ACE solution and 75 μL of the sample with a 5000-Da MWCO membrane (Millipore, Burlington, MA, USA) was incubated at 37 °C for 10 min, to which was added 75 μL of HHL solution, and the mixture was incubated for a further 30 min. […] Finally, inhibition activity was calculated using the following formula.Inhibition activity (%) = [(Ec - Es)/(Ec - Eb)] × 100 where Ec is the absorbance with addition of the buffer instead of the test sample (control), Es is the absorbance when the sample was added to the reaction mixture (sample), and Eb is the absorbance when the stop solution was added before the reaction occurred (blank). […] All data presented in this paper are the average of three repeats or mean ± standard deviation (SD).

The subject of another experiment is ACE. The conditions noted are these: cited from earlier work.
Another experiment concerns SHRs. The conditions noted are these: tube feeding, after 2 to 4 h, compared with captopril at the same dose; cited from earlier work.
For experiment [1], the target named is angiotensin I-converting enzyme (ACE) of rabbit lung (rabbit) (UniProt P12822).
The target is the same in experiment [2]. This is another data set of the same source.
Where [3] appears, read: peaks F7 to F10, converted from μM, read-out: IC50 (equivalent in mg/mL) (converted).
[4] abbreviates: peptides of peaks F7 to F10 from PN-1G, read-out: IC50.
Where [5] appears, read: ACE-inhibitory peptides from pepsin hydrolysate of Porphyra yezoensis, read-out: IC50.

Turning to `CC(C)[C@H](NC(=O)[C@@H](N)Cc1c[nH]c2ccccc12)C(=O)O` [Peak F7, Trp–Val] (H-Trp-Val-OH), the “ACE Inhibitory (%)” value on Rabbit lung ACE came to 54.3%. The figures for the IC50 on Rabbit lung ACE (setting [3]) and on Rabbit lung ACE (setting [4]) were 308 µM and 307.61 ± 0.01 µM, respectively.
As to `CC(C)[C@H](N)C(=O)N[C@@H](Cc1c[nH]c2ccccc12)C(=O)O` [Peak F8, Val–Trp] (H-Val-Trp-OH), the IC50 was 0.593 µM on Rabbit lung ACE (IC50 (equivalent in mg/mL), peaks F7 to F10, converted from μM) and 0.58 ± 0.02 µM against Rabbit lung ACE (IC50, peptides of peaks F7 to F10 from PN-1G). Besides, the “ACE Inhibitory (%)” value on Rabbit lung ACE is 86.1%.
For the molecule `CC[C@H](C)[C@H](N)C(=O)N[C@@H](Cc1c[nH]c2ccccc12)C(=O)O` [Peak F9, Ile–Trp], the “ACE Inhibitory (%)” value on Rabbit lung ACE was found to be 95.1%. Further, the results for the IC50 on Rabbit lung ACE (setting [3]) and at Rabbit lung ACE (setting [4]) were 0.504 µM and 0.5 ± 0.01 µM, respectively.
As for “Ala-Lys-Tyr-Ser-Tyr (AKYSY; printed: Ala-Lys-Tyr-Ser-Tyr)”, the IC50 with ACE (setting [5]) is 1.52 µM.
With Ile-Gln-Pro, the IC50 with ACE (peptide from Alcalase hydrolysate, read-out: IC50) was 5.77 µM. In addition, in the experiment with SHRs, the blood pressure-lowering effect entry is “same blood pressure-lowering effect as captopril”.
As to Ile-Trp (peptide), the ACE Inhibitory (%) of peak F9 at peptide content 0.01 mg/mL in experiment [1] worked out at 95.1%. In experiment [2], this molecule gave an IC50 of inhibition of ACE activity (hydrolysis of HHL to hippuric acid, RP-HPLC, 37 °C, pH 8.3) of 0.5 μM.
For Ile-Tyr, in the experiment with ACE (setting [5]), the IC50 is 2.69 µM.
Take Leu-Arg-Tyr: the IC50 in the experiment on ACE (setting [5]) is 5.06 µM.
Leu-Trp (peptide): the ACE Inhibitory (%) of peak F10 at peptide content 0.01 mg/mL in experiment [1] was found to be 87.7%. In experiment [2], this molecule displayed an IC50 of inhibition of ACE activity (hydrolysis of HHL to hippuric acid, RP-HPLC, 37 °C, pH 8.3) of 1.11 μM.
Consider Met-Lys-Tyr, for which, in the experiment on ACE (setting [5]), the IC50 is 7.26 µM.
Turning to Phe–Ala–Leu, the IC50 in the experiment on ACE (peptide from pepsin hydrolysate of C. vulgaris, read-out: IC50) is 26.3 µM.
Consider Trp-Val (peptide), for which the ACE Inhibitory (%) of peak F7 at peptide content 0.01 mg/mL in experiment [1] was found to be 54.3%. The IC50 of inhibition of ACE activity (hydrolysis of HHL to hippuric acid, RP-HPLC, 37 °C, pH 8.3) in experiment [2] came to 308 μM.
On to “VRYL (UniProt P04654 220-223, looked up, fragment)”, for which the IC50 in the experiment on ACE (before hydrolysis with digestive enzymes) was 9 µg/mL.
Turning to Val-Trp (peptide), the ACE Inhibitory (%) of peak F8 at peptide content 0.01 mg/mL in experiment [1] was 86.1%. Further, in experiment [2], the IC50 of inhibition of ACE activity (hydrolysis of HHL to hippuric acid, RP-HPLC, 37 °C, pH 8.3) turned out to be 0.58 μM.
